Results as given in patent US12410164B2, “Heterocyclic compounds and medical use thereof” (FONDAZIONE TELETHON, priority 2018, dated 2025).
“Also recorded” adds a separate entry of the source.

Experiments:
F508del-CFTR [1] = target: T1, F508del-CFTR (Homo sapiens, UniProt P13569, DEL508-508); test: Transepithelial short-circuit current in primary bronchial epithelial cells of F508del homozygous CF patient; format: cell-based; set-up: endogenous in cells; host or cells: primary bronchial and nasal epithelial cells from CF patients homozygous for F508del
T1 sequence (P13569 with tags, fused parts or gaps DEL508-508): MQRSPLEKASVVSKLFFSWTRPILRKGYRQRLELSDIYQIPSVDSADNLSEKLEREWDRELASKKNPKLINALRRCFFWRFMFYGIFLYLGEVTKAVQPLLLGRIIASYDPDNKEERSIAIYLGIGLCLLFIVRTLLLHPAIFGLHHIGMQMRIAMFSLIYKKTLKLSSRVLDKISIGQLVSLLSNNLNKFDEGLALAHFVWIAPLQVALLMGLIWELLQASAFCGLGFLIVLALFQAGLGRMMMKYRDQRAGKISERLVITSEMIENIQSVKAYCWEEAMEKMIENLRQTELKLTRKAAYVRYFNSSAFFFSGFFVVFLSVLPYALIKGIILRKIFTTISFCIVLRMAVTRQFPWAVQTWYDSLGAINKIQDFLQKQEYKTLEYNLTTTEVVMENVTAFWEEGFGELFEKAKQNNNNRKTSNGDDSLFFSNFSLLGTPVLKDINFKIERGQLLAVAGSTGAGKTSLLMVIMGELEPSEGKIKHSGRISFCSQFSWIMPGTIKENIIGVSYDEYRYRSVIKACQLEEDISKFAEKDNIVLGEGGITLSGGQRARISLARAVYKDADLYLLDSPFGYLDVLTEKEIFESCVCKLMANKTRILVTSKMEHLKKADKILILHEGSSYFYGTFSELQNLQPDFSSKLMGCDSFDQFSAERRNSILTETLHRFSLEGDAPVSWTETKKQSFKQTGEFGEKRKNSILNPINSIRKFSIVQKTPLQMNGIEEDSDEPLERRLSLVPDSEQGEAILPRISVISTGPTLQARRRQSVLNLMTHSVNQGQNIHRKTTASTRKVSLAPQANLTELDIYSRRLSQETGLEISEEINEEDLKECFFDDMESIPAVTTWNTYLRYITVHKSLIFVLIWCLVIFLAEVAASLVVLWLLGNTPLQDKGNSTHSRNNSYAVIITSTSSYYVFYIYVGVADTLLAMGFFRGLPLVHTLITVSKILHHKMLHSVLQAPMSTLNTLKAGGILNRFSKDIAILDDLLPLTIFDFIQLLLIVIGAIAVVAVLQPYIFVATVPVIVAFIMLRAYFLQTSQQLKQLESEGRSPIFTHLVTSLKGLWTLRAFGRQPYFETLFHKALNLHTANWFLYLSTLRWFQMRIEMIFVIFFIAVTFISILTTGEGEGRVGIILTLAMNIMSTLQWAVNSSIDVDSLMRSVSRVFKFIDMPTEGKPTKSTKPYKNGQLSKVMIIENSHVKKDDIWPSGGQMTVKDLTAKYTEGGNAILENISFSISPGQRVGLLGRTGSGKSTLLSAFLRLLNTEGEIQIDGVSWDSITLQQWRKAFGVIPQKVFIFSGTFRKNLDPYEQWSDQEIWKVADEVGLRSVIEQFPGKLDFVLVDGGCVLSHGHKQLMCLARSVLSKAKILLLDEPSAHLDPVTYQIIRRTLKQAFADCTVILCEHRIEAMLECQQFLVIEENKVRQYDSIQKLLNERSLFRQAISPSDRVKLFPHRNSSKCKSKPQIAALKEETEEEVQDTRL
Experimental: (§1) The culture and functional study of human primary nasal and bronchial epithelial cells have been described in detail above (Scudieri P, et al. J Physiol. 2012, 590, 6141-6155). Briefly, nasal epithelial cells were taken after informed consent using the “brushing” technique. […] With this mode, the transepithelial potential difference is locked to zero and the resulting current, supplied by the Voltage Clamp is recorded by an AD/DA converter (PowerLab, ADInstruments).
The cells were grown in such a way as to generate differentiated epithelia on porous supports (Snapwell). […] As a channel-protein able to mediate a chloride ion flux, CFTR activity is detected as a transepithelial ionic current. […]

F508del-CFTR [2] = target: T1, F508del-CFTR; test: Transepithelial short-circuit current in primary nasal epithelial cells of F508del homozygous CF patient; format: cell-based; set-up: endogenous in cells; host or cells: primary bronchial and nasal epithelial cells from CF patients homozygous for F508del; details: FIG. 3C
Description: The culture and functional study of human primary nasal and bronchial epithelial cells have been described in detail above (Scudieri P, et al. J Physiol. 2012, 590, 6141-6155). Briefly, nasal epithelial cells were taken after informed consent using the “brushing” technique. Bronchial cells were instead obtained by proteolytic digestion of bronchi isolated from the lungs of patients (suffering from CF or other pulmonary pathology (idiopathic pulmonary fibrosis, pulmonary hypertension, emphysema) subjected to transplant operations. The informed consent of the patients was obtained also in this case. After isolation, epithelial cells were cultured in a liquid medium of defined serum-free composition. This medium consists of a mixture of LHC9/RPMI 1640 (1:1) enriched with various hormones and growth factors (Scudieri P, et al. J Physiol. 2012, 590, 6141-6155). After 3-5 passages, necessary for the expansion of the initial number, the cells were seeded at high density on Snapwell porous supports (Corning, 3801). After 24 hours, the culture medium was replaced by a mixture consisting of DMEM and Ham's F12 (1:1) enriched with 2% foetal bovine serum and other supplements. […] With this mode, the transepithelial potential difference is locked to zero and the resulting current, supplied by the Voltage Clamp is recorded by an AD/DA converter (PowerLab, ADInstruments).

[3] = tested on: calcium-dependent chloride secretion; test: Short-circuit current in bronchial epithelial cells: UTP-activated, inh-A01-inhibited chloride secretion; format: cell-based, human; details: compound 10 μM, activated with UTP
Experimental: FIG. 3. PP008 corrective activity on primary epithelial cells. (A) The representative plots and (B) the bar chart show the results obtained by treating bronchial epithelial cells from a patient homozygous for the mutation F508del with PP008 (10 μM) in the presence and absence of VX-809 (1 μM). As control, cells were treated for 24 h with vehicle alone (dimethylsufoxide, DMSO) at the same concentration (0.1%) used to add test compounds. […] (C) Results obtained on nasal epithelial cells of a homozygous F508del patient. *, p<0.05; ***, p<0.001.
as §1

G542X-CFTR = test: HS-YFP assay in null CFBE41o− cells transfected with G542X-CFTR; format: cell-based
Experimental: To assess the function and pharmacological sensitivity of G542X-CFTR mutant, inventors used the null version of CFBE41o− cells, i.e. cells with negligible expression of endogenous CFTR and without HS-YFP. Such cells were transiently transfected with the plasmid coding for HS-YFP alone or in combination with: empty plasmid, plasmid coding for wild type CFTR, or plasmid coding for G542X-CFTR. For transfection, cells were seeded in 96-well microplates (30,000 cells/well) in 150 μl of antibiotic-free culture medium. After 24 hours, cells were transfected with the desired plasmids. For each well, 0.2 μg of total plasmid DNA and 0.5 μl of Lipofectamine 2000 (Invitrogen) were first pre-mixed in 50 μl of OPTIMEM (Invitrogen) to generate transfection complexes (60 minutes at room temperature), and then added to the cells. After 24 hour, the complexes were removed by replacement with fresh culture medium. The HS-YFP functional assay was performed after further 24 hours.
To assess the ability of compounds of present invention to improve the rescue of premature stop codon (class I) mutations, we carried out experiments on G542X-CFTR (FIG. 7). Null CFBE41o− cells, devoid of endogenous CFTR expression, were transiently transfected with empty, wild type CFTR or G542X-CFTR plasmids. All cells also received the HS-YFP plasmid to allow functional determination of CFTR-dependent anion transport. […] Where indicated, cells with G542X-CFTR were also treated with G418 (0.5 mg/ml) for 24 hr to induce readthrough of the stop codon mutation, with and without correctors (VX-809 and/or PP028, labeled as VX and PP). […] The activity resulting from wild type CFTR is also shown for comparison.

effect of combination with VX-809 on F508del-CFTR current (F508del-CFTR [2])	Compound	F508del-CFTR activity (current blocked by inh-172) (F508del-CFTR [1]; compound 10 μM alone, 24 h incubation)	F508del-CFTR activity (current blocked by inh-172) of combination (F508del-CFTR [1]; compound 10 μM plus VX-809 1 μM, 24 h)	calcium-dependent chloride secretion [3]	CFTR activity (QR) in G542X-CFTR cells versus G418 alone (G542X-CFTR; G418 0.5 mg/ml plus VX-809 1 μM or PP028 10 μM)	comparison of co-treatments with G418 in G542X-CFTR cells (G542X-CFTR; PP028 10 μM versus VX-809 1 μM, each plus G418)
synergistic effect	CCOC(=O)c1c(Br)c2c(n1Cc1ccc(C)cc1)-c1[nH]c(=O)c(S(=O)(=O)c3ccccc3)cc1CC2 [PP008, Ethyl 7-(benzenesulfonyl)-3-bromo-1-[(4-methylphenyl)methyl]-8-oxo-4,5,8,9-tetrahydro-1H-pyrrolo[3,2-h]quinoline-2-carboxylate]	significantly increased; also recorded: significant increase in current	significantly greater than the sum of the effects of the individual correctors	does not modify		
	CCOC(=O)c1c(Br)c2c(n1Cc1cccc(C)c1)-c1[nH]c(=O)c(S(=O)(=O)c3ccccc3)cc1CC2 [PP028, Ethyl 3-bromo 1-(3-methylbenzyl)-8-oxo-7-(phenylsulfonyl)-4,5,8,9-tetrahydro-1H-pyrrolo[3,2-h]quinoline-2-carboxylate]				further increased activity	significantly more effective than VX-809
